Measured values taken from patent publication US11980596B2 (priority 2017, dated 2024).
Several values for one entry are separate records, joined by “and”; a condition that tells them apart may be missing. Identical values can stand only once. Entries after “also recorded” stand apart in the source; their conditions may differ. Counter-ions that a name gives are not always drawn. Marks after values point to notes of the source that are not given here.

Tests used:
[1] = Pharmacokinetics of intranasal esketamine in healthy subjects (Example 9)
Method: Blood samples (4 mL each) for determination of esketamine and noresketamine plasma concentrations were collected into the appropriate collection tube (e.g., Vacutainer®) at timepoints 0.00, 0.12, 0.20, 0.37, 0.53, 0.67, 0.83, 1.00, 1.25, 1.50, 2.00, 3.00, 4.00, 6.00, 9.00, 12.00, 18.00, and 24.00 h. The total amount of blood to be drawn for clinical laboratory tests and PK evaluations is approximately 327 mL.
Plasma samples were analyzed for esketamine and noresketamine concentrations using the validated, specific and sensitive liquid chromatography coupled to tandem mass spectrometry (LC-MS/MS) achiral method of Example 8.
Serial PK blood samples (4 mL each) were collected for a 24-hour period from each subject (Periods 1, 2, and 3). […] Statistical Methods 1.6.4.1. Sample Size
The following key parameters of esketamine and noresketamine in plasma were calculated using noncompartmental methods and actual sampling times: Cmax, tmax, AUClast, AUC∞, t1/2,λ, and λz.

glutamate NMDA receptor = test: Affinity for the NMDA receptor in vitro; type: binding
[2] = Clinical pharmacokinetics of esketamine (label)
[3] = test system: female Sprague-Dawley rats; test: Single dose neurotoxicity study: mortality, clinical observations, body weight; type: in vivo, rat; conditions: for Abnormal respiration, incidence / Abnormal respiration: audible respiration, incidence / Abnormal respiration: bradypnoea, incidence / Ataxia, incidence / Catalepsy, incidence / Chromodacryorrhea, incidence / Decreased general activity, incidence / Decubitus, incidence / Increased general activity, incidence / Narrowed palpebral fissure, incidence / Piloerection, incidence / Salivation (out of normal), incidence: single dose
Method: The injection volume was 5 mL/kg.
(§1) Body weight and body weight gain were measured daily.

[4] = Embryo-fetal toxicity, intranasal racemic ketamine, pregnant rats; type: in vivo, rat; conditions: female, rat, in vivo, inhaled or intranasal; intranasal; period of organogenesis
Method: (§2) Racemic ketamine was administered intranasally to pregnant rats during the period of organogenesis at doses of 15, 50, and 150 mg/kg/day. The No Observed Adverse Effect level (NOAEL) for embryo-fetal toxicity in rats was the highest dose of 150 mg/kg/day. […] In pregnant rabbits, racemic ketamine was administered intranasally from gestational day 6 to 18 at doses of 10, 30, and 100 mg/kg/day. The high dose was lowered from 100 to 50 mg/kg after 5 days of dosing due to excessive mortality in the pregnant rabbits.

pregnant rats = test: as above; type: in vivo, rat; conditions: estimating 50% of the exposure to be from esketamine
Method: as §2

pregnant rabbits = test: Embryo-fetal reproduction study, intranasal ketamine, pregnant rabbits; type: in vivo, rabbit
Method: as §2

bone marrow = test: In vivo bone marrow micronucleus test; set-up: species or system mice; conditions: intraperitoneally-injected
[5] = Single-dose neuronal toxicity study, subcutaneous racemic ketamine (label); type: in vivo, rat; conditions: rat, in vivo, sc; single subcutaneous dose; read-out: NOAEL for vacuolation
Method: (§3) In a single-dose neuronal toxicity study in adult rats, subcutaneously administered racemic ketamine caused neuronal vacuolation in layer I of the retrosplenial cortex of the brain without neuronal necrosis at a dose of 60 mg/kg. The NOAEL for vacuolation in this study was 15 mg/kg. […] The relevance of these findings to humans is unknown.

adult rats = test: as above; type: in vivo, rat
Method: as §3

Ames test = conditions: with or without metabolic activation
[6] = test system: adult female Sprague Dawley rats; conditions: 3 hours after a single intraperitoneal injection (Jevtovic-Todorovic 2000); cited from earlier work
mouse lymphoma = test: In vitro mouse lymphoma test; conditions: in the presence of metabolic activation
MDD/TRD subjects = conditions: 52-week safety study in MDD/TRD subjects (Berman et al., 2011); cited from earlier work
[7] = test system: female Sprague-Dawley rats; test: 14-day repeated dose neurotoxicity study: mortality, clinical observations, body weight; type: in vivo, rat; conditions: 14 days
Method: as §1

[8] = Solubility of esketamine HCl
Method: The clinical investigational product is an aqueous solution of the drug substance, esketamine hydrochloride (HCl). This formulation is administered intranasally to patients using a dual nasal spray device, which delivers one spray into each nostril. […] The formulation was stored at 37° C. for stability reasons until dosing.

[9] = test system: posterior cingulate gyrus (PCG) and retrosplenial cortex (RSC); test: Single dose neurotoxicity study: brain histopathology (neuronal necrosis); conditions: single dose of 72 mg; 48 or 96 hours; hydrochloride
Method: In order to prepare for brain histopathology examination, all main study animals were perfused at necropsy. Prior to the perfusion, rats were anesthetized with isoflurane. After injection of 0.1 ml heparin, the blood of the rat was flushed out with a physiological saline solution by intraarterial insertion of a needle in the abdominal aorta. Thereafter the rat was perfused with glutaraldehyde 3% in potassium phosphate 0.09M and 1.4% sucrose.
The vehicle control, positive control, and esketamine HCl-dosed animals were sacrificed at either 48 hours (i.e., the first 12 or 15 rats per group) or 96 hours after the dose administration time (i.e., the last 12 or 15 rats per group). The brain tissue of the vehicle control-, positive control- and esketamine HCl-treated rats were processed at the same time and handled in the same way in batches of 4 or 5 animals per group.
Brain tissue was sampled and processed routinely. The trimmed and embedded tissue was sectioned and stained with hematoxylin-eosin (HE). Histoprocessing and staining were carried out in three batches of 4 animals per group (each batch thus containing 4 animals from vehicle control-, positive control- and the three esketamine HCl-treated groups). In the single dose study duplicate brain sections were stained with Fluoro-Jade (FJ).
All tissues showing gross abnormalities were examined macroscopically. […]

[10] = test system: posterior cingulate gyrus (PCG) and retrosplenial cortex (RSC); test: 14-day repeated dose neurotoxicity study: brain histopathology (neuronal necrosis); conditions: up to 54 mg/day; 48 hours after the last instillation; hydrochloride
Method: The brain tissue of the vehicle control-, positive control- and esketamine HCl-treated rats were processed at the same time and handled in the same way in batches of 4 animals per group.
Brain tissue was sampled and processed routinely. The trimmed and embedded tissue was sectioned and stained with hematoxylin-eosin (HE). Histoprocessing and staining were carried out in three batches of 4 animals per group (each batch thus containing 4 animals from vehicle control-, positive control- and the three esketamine HCl-treated groups).
All tissues showing gross abnormalities were examined macroscopically. Histopathological examination was performed on 7 levels of brain tissue according to Bolon (2013. Toxicol. Pathol. 41(7), 1028-1048) from the vehicle control-, positive control-, and high dose esketamine HCl-treated groups in the single dose study, and in all groups in the repeated dose study.
The microscopic finding of neuronal necrosis in the PCG/RSC of the brain was graded unilaterally according to the number of necrotic neurons observed over the total length of the PCG/RSC structure visible in the tissue section (usually around 3-5 mm) utilizing the following criteria:

[11] = noresketamine in plasma after esketamine 28 mg intranasal (A), n = 13
[12] = noresketamine in plasma after esketamine 56 mg intranasal (B), n = 13
[13] = noresketamine in plasma after esketamine 56 mg intranasal (B), n = 14
[14] = noresketamine in plasma after esketamine 84 mg intranasal (C), n = 12
[15] = noresketamine in plasma after esketamine 84 mg intranasal (C), n = 13
[16] = estimating 50% of the exposure to be from esketamine

Compound: N[C@]1(c2ccccc2Cl)CCCCC1=O [noresketamine]
- AUC (AUClast and AUC∞) variability ([1]; noresketamine): 17.0% to 21.3
- Between-subject variability for Cmax ([1]; noresketamine): 25.8% to 33.7
- AUClast, mean [1, 11]: 454 ng·h/mL
- AUC∞, mean [1, 11]: 508 ng·h/mL
- Cmax, mean [1, 11]: 92.8 ng/mL
- t1/2, mean [1, 11]: 7.74 h
- tmax, median [1, 11]: 1.25 h
- AUC∞, mean [1, 12]: 924^c h * ng/mL
- t1/2, mean [1, 12]: 7.71^c h
- AUClast, mean [1, 13]: 851 ng·h/mL
- Cmax, mean [1, 13]: 154 ng/mL
- tmax, median [1, 13]: 1.50 h
- AUC∞, mean [1, 14]: 1392^b h * ng/mL
- t1/2, mean [1, 14]: 7.48^b h
- AUClast, mean [1, 15]: 1287 ng·h/mL
- Cmax, mean [1, 15]: 241 ng/mL
- tmax, median [1, 15]: 1.50 h
- Metabolite/Parent Ratio, AUC∞ ([1]; noresketamine/esketamine, esketamine 28 mg intranasal (A), n = 12): 3.80^b
- Activity at the NMDA receptor relative to esketamine (glutamate NMDA receptor): less affinity
- Inhibition of CYP3A4 (CYPs and UGTs): weak reversible inhibition
- Brain-to-plasma ratio, times lower than that of esketamine ([2]; human, in vivo): 4- to 6 times
- Mean terminal t1/2 ([2]; noresketamine in plasma): approximately 8 hours

Compound: (+)MK-801 maleate [reference compound]
- Mortality ([3]; single subcutaneous dose 1 mg/kg, single dose or repeated dose study): No mortality

Compound: CNC1(c2ccccc2Cl)CCCCC1=O (racemic) [ketamine]
- NOAEL [4]: 150 mg/kg/day
- Esketamine AUC at the NOAEL, multiple of AUC at the MRHD of 84 mg/day (pregnant rats): 12 times
- Esketamine exposure (AUC) at the NOAEL for skeletal malformations, multiple of exposure at MRHD of 84 mg/day (pregnant rabbits): 0.3 times
- Genotoxicity (bone marrow): did not show genotoxic properties
- NOAEL [5]: 15 mg/kg
- NOAEL for neuronal necrosis, multiple of clinical exposure at the MRHD, AUC (adult rats; [16]): 10 times
- NOAEL for neuronal necrosis, multiple of clinical exposure at the MRHD, Cmax (adult rats; [16]): 16 times
- NOAEL for neuronal vacuolation, multiple of clinical exposure at the MRHD, AUC (adult rats; [16]): 1.6 times
- NOAEL for neuronal vacuolation, multiple of clinical exposure at the MRHD, Cmax (adult rats; [16]): 4.5 times
- Dose causing neuronal vacuolation in layer I of the retrosplenial cortex without neuronal necrosis (adult rats; single subcutaneous dose): 60 mg/kg
- Mutagenicity (Ames test): not mutagenic
- ED50-value for the induction of neuronal vacuolation in the PCG/RSC [6]: 47.5 mg/kg body weight
- Mutagenicity (mouse lymphoma): positive

Compound: OCCOCCN1CCN(C2=Nc3ccccc3Sc3ccccc32)CC1 [quetiapine]
- Discontinuation rate due to adverse events (MDD/TRD subjects): 23.7%

Compound: CN[C@]1(c2ccccc2Cl)CCCCC1=O [esketamine HCl, (S)-2-(2-chlorophenyl)-2-(methylamino)cyclohexanone hydrochloride]
- Abnormal respiration, incidence ([3]; 36 mg intranasal): 22/24 ***
- Abnormal respiration: audible respiration, incidence ([3]; 36 mg intranasal): 10/24 ***
- Abnormal respiration: bradypnoea, incidence ([3]; 36 mg intranasal): 22/24 ***
- Ataxia, incidence ([3]; 36 mg intranasal): 24/24 ***
- Catalepsy, incidence ([3]; 36 mg intranasal): 20/24 ***
- Chromodacryorrhea, incidence ([3]; 36 mg intranasal): 0/24
- Decreased general activity, incidence ([3]; 36 mg intranasal): 23/24 ***
- Decubitus, incidence ([3]; 36 mg intranasal): 23/24 ***
- Increased general activity, incidence ([3]; 36 mg intranasal): 24/24 ***
- Narrowed palpebral fissure, incidence ([3]; 36 mg intranasal): 7/24**
- Piloerection, incidence ([3]; 36 mg intranasal): 0/24
- Salivation (out of normal), incidence ([3]; 36 mg intranasal): 23/24 ***
- Duration of severely decreased activity with decubitus, bradypnea, ptosis and catalepsy (anesthesia) ([3]; 36 mg, after the last instillation): 15 to 30 min
- Abnormal respiration, incidence ([3]; 54 mg intranasal): 22/24 ***
- Abnormal respiration: audible respiration, incidence ([3]; 54 mg intranasal): 3/24
- Abnormal respiration: bradypnoea, incidence ([3]; 54 mg intranasal): 21/24 ***
- Ataxia, incidence ([3]; 54 mg intranasal): 24/24 ***
- Catalepsy, incidence ([3]; 54 mg intranasal): 23/24 ***
- Chromodacryorrhea, incidence ([3]; 54 mg intranasal): 0/24
- Decreased general activity, incidence ([3]; 54 mg intranasal): 23/24 ***
- Decubitus, incidence ([3]; 54 mg intranasal): 23/24 ***
- Increased general activity, incidence ([3]; 54 mg intranasal): 24/24 ***
- Narrowed palpebral fissure, incidence ([3]; 54 mg intranasal): 10/24 ***
- Piloerection, incidence ([3]; 54 mg intranasal): 0/24
- Salivation (out of normal), incidence ([3]; 54 mg intranasal): 24/24 ***
- Duration of ataxia after the decrease in activity had subsided ([3]; 54 mg, hydrochloride): 1.5 to 3 h and 1 to 3 h
- Duration of ataxia after the decrease in activity had subsided ([3]; 72 mg): ≥ 3 h
- Abnormal respiration, incidence ([3]; 72 mg intranasal): 30/30 ***
- Abnormal respiration: audible respiration, incidence ([3]; 72 mg intranasal): 2/30
- Abnormal respiration: bradypnoea, incidence ([3]; 72 mg intranasal): 30/30 ***
- Catalepsy, incidence ([3]; 72 mg intranasal): 30/30 ***
- Chromodacryorrhea, incidence ([3]; 72 mg intranasal): 0/30
- Decreased general activity, incidence ([3]; 72 mg intranasal): 30/30 ***
- Decubitus, incidence ([3]; 72 mg intranasal): 30/30 ***
- Increased general activity, incidence ([3]; 72 mg intranasal): 29/30 ***
- Narrowed palpebral fissure, incidence ([3]; 72 mg intranasal): 22/30 ***
- Piloerection, incidence ([3]; 72 mg intranasal): 0/30
- Salivation (out of normal), incidence ([3]; 72 mg intranasal): 29/30 ***
- Abnormal respiration, incidence ([7]; 18 mg/day intranasal): 2/12
- Abnormal respiration: audible respiration, incidence ([7]; 18 mg/day intranasal): 2/12
- Abnormal respiration: bradypnoea, incidence ([7]; 18 mg/day intranasal): 0/12
- Ataxia, incidence ([7]; 18 mg/day intranasal): 12/12***
- Chromodacryorrhea, incidence ([7]; 18 mg/day intranasal): 0/12
- Decreased general activity, incidence ([7]; 18 mg/day intranasal): 5/12
- Decubitus, incidence ([7]; 18 mg/day intranasal): 0/12
- Increased general activity, incidence ([7]; 18 mg/day intranasal): 12/12***
- Salivation (out of normal), incidence ([7]; 18 mg/day intranasal): 12/12***
- Abnormal respiration, incidence ([7]; 36 mg/day intranasal): 11/12***
- Abnormal respiration: audible respiration, incidence ([7]; 36 mg/day intranasal): 6/12**
- Abnormal respiration: bradypnoea, incidence ([7]; 36 mg/day intranasal): 11/12***
- Ataxia, incidence ([7]; 36 mg/day intranasal): 12/12***
- Chromodacryorrhea, incidence ([7]; 36 mg/day intranasal): 0/12
- Decreased general activity, incidence ([7]; 36 mg/day intranasal): 12/12***
- Decubitus, incidence ([7]; 36 mg/day intranasal): 2/12
- Increased general activity, incidence ([7]; 36 mg/day intranasal): 12/12***
- Salivation (out of normal), incidence ([7]; 36 mg/day intranasal): 12/12***
- Abnormal respiration, incidence ([7]; 54 mg/day intranasal): 12/12***
- Abnormal respiration: audible respiration, incidence ([7]; 54 mg/day intranasal): 6/12**
- Abnormal respiration: bradypnoea, incidence ([7]; 54 mg/day intranasal): 12/12***
- Ataxia, incidence ([7]; 54 mg/day intranasal): 12/12***
- Chromodacryorrhea, incidence ([7]; 54 mg/day intranasal): 0/12
- Decreased general activity, incidence ([7]; 54 mg/day intranasal): 12/12***
- Decubitus, incidence ([7]; 54 mg/day intranasal): 8/12***
- Increased general activity, incidence ([7]; 54 mg/day intranasal): 12/12***
- Salivation (out of normal), incidence ([7]; 54 mg/day intranasal): 12/12***
- Maximum solubility, as base ([8]; room temperature, pH 4.5, factor 1.15): 180 mg esketamine base/mL
- Solubility ([8]; water, methanol, ethanol): freely soluble in water and in methanol, and soluble in ethanol
- Histopathological lesions in the brain [9]: absent; also recorded: no neuropathological lesions
- Histopathological lesions in the brain [10]: No histopathological lesions
